One assay relates to Adenovirus type 5 (Ad5). The assay can be described thus: Adenovirus type 5 titers following direct exposure of the virus to CTC-96 prior to HeLa cell infection (plaque assay). The note with it: Ad5 incubated with CTC-96 at 37° C. for 60 minutes, diluted 500 fold, HeLa cells. The class given is cell-based. As for the experimental part:
(§1) Anti-adenovirus activity of CTC-96 was evaluated by standard cell culture using HeLa cells, a human cervical carcinoma immortalized cell line (the usual host for laboratory grade adenovirus) and anti-viral plaque-reduction assays.
The data graphically depicted in FIG. 1 were obtained as follows: varying concentrations of the CTC-96 were mixed with concentrated Human Adenovirus, [Adenovirus type 5 (Ad5)] and incubated at 37° C. for 60 minutes. Aliquots were then diluted 500 fold into growth medium. Hela cells were exposed to 100 μl of the diluted material to initiate infection. These monolayers were incubated for 24 hours at 37% and 5% CO2 and then washed, scraped, sonicated, centrifuged and the supernatant serially diluted. These serial dilutions were plated onto indicator HeLa cell monolayers and adsorbed for 60 min, aspirated and a methycellulose overlay placed over the cells, which were then incubated for 3 days at 37%. Cultures were counterstained with 1% methylene blue, allowed to dry and the plaques counted. Results are expressed as mean±SD (where error bars are not visible they are contained within data point).

Assay [1] deals with Human Adenovirus Type 5. The assay can be described thus: Adenovirus recovery from tear film of infected rabbit eyes, plaque assay on HeLa cell monolayers. The class given is in vivo. As for the experimental part:
(§2) Clinical results and plaque assay viral titers of three CTC-96 treatment/dosing regimens of rabbit eyes infected with Human adenovirus, Adenovirus type 5 (Ad5), were evaluated. On “Day 1” animals were infected with Human Adenovirus Type 5 by the installation of 10^6 pfu adenovirus according to our protocol of conjunctival and corneal scarification for the induction of Keratoconjunctivitis. […] Animals were then randomized and the following experimental groups were treated with CTC-96 or placebo in a double blind experiment: • (1) Placebo (diluent alone), 9×/day, for 21 days: (4 rabbits). • (2) CTC-96 50 μg/ml, 9×/day, for 21 days: (4 rabbits). • (3) CTC-96 50 μg/ml, 6×/day, for 21 days: (4 rabbits). • (4) C T W 25 μg/ml, 6×/day, for 21 bays: (4 rabbits).
The efficacy of CTC-96 treatment of rabbit eyes infected with Human adenovirus, Adenovirus type 5 (Ad5), was also evaluated by adenovirus recovery from tear film cultures adsorbed onto confluent HeLa cell monolayers. […] On day 8 post-inoculation treatment with eye drops containing CTC-96 or placebo was initiated. Adenovirus recovery from tear film was evaluated by plaque assay on confluent HeLa cell monolayers. Data are presented as Average±SD.

The subject of assay [2] is human Adenovirus type 5 (Ad5). The assay can be described thus: Virus titers after exposure of Ad5 infected HeLa cells to CTC-96 (plaque assay). The note with it: Ad5 adsorbed onto HeLa monolayers 60 min, then CTC-96 for 24 hr. The class given is cell-based. As for the experimental part:
Monolayers were then incubated for 24 hr at 37° C. and 5% CO2. Monolayers were then washed, scraped, sonicated, centrifuged and the supernatant serially diluted. These serial dilutions were plated onto indicator HeLa cell monolayers and adsorbed for 60 min, aspirated and a methylcellulose overlay placed over the cells, which were then incubated for 3 days at 37%. Cultures were counterstained with 1% methylene blue, allowed to dry and the plaques counted. Results am expressed as mean & SD (where error bars are not visible they are contained within data point).

For assay [3], the system named is Human Adenovirus Type 5. The assay can be described thus: CTC-96 treatment of Adenovirus induced keratoconjunctivitis in rabbit eyes, clinical grading by slit lamp microscopy. The class given is in vivo. The following applies: for progression of disease severity: 21 days, from day 8 post-inoculation. As for the experimental part: as §2
Clinical disease progression and resolution were evaluated by slit lamp microscopy on days 1, 3, 7, 10, 13, 18, 21, 24, 28 and 31 after initial drug dosing. The intensity of the keratitis was quantified using a clinical grading system (5).
The data In FIG. 3 were obtained as follows: rabbits were infected with Human Adenovirus Type 5 by the installation 10^6 pfu adenovirus according to our protocol of conjunctival and corneal scarification for the production of Keratoconjunctivitis. On day 8 post-inoculation treatment with eye drops containing CTC-96 or placebo was initiated. Animals were examined for stromal keratitis and scored by the corneal disease scale of Wander et al. (5). The following are the Criteria For Determination Of Conjunctival Disease: […]

For assay [4], the system named is Adenovirus types 1, 2, 3, 4, 5, and 7. The assay is described as follows: CTC-96 efficacy against several adenovirus serotypes in HeLa cells in tissue culture (viral titers at each drug concentration). The class given is cell-based, Human Adenoviruses. The following applies: drug overlaid after 1 hour adsorption, 24 hours, 500, 250, 100, 50, 10 μg/ml. As for the experimental part: Since these human viruses cannot be grown in animal models, this provides an excellent indication of the effectiveness of CTC-96 against a broad spectrum of Adenovirus types. To determine CTC-96 efficacy against several types of serotypes of adevirus the following procedure was followed:
1. Hela cells were confluent at the time of inoculation.
2. Virus dilutions were prepared from the known titers of the stock viruses (4×10^5 pfu/ml; 4×10^4/0.1 ml) of Ad1 Kmetz, Ad2 Wolf, Ad3 Holyfield, Ad4 Harris, Ad7a Joseph, ATCC. This virus inoculation yielded a virus infection with an m.o.i. (multiplicity of infection) of approximately 1.0.
3. 100 µl of each Ad serotype were inoculated onto cultures containing Hela cells.
4. During the adsorption period, Doxovir concentrations of 500, 250, 100, 50, 10, and 0 μg/ml were prepared in culture medium according to the dilution protocol.
5. Virus was adsorbed at 37° C. in a 5% CO2 water-vapor atmosphere for 1 hour.
6. […]
13. Viral titers were determined at each drug concentration. […]
as §1

Entries after “also recorded” stand apart in the source; their conditions may differ. Bounds are passed on as bounds.

We go through one molecule from patent US20060025398A1, “Topical antiviral therapeutic and prophylactic treatment of adenoviruses and their associated diseases” (priority 2003, published 2006).

With `CC(/C=C(/C)[O-])=NCCN=C(C)/C=C(/C)[O-].Cc1ncc[nH]1.Cc1ncc[nH]1.[Br-].[Co+3]` [CTC-96], in the assay with Adenovirus type 5 (Ad5), the “effect on virus growth when virus is exposed to the drug prior to cell infection” value was “inhibitory (prophylactic) effect on growth”. The “no detectable virus in the eye” value in the assay with Human Adenovirus Type 5 [1] (50 μg/ml 6 times a day) and with Human Adenovirus Type 5 [1] (50 μg/ml 9 times a day) was no more than 13 days in each case. The “effect on viral growth in Adenovirus infected cells subsequently exposed to the drug” value in assay [2] was “inhibition of viral growth”. Moreover, the “complete resolution of clinical disease (day after initial drug dosing)” value with Human Adenovirus Type 5 [3] (50 μg/ml 6 times a day for 21 days) and in the assay on Human Adenovirus Type 5 [3] (50 μg/ml 9 times a day for 21 days) was no more than 21 days each time. Moreover, the “progression of disease severity” value was “prevented progression of disease severity” in the assay with Human Adenovirus Type 5 [3] (topical eye drops 25 μg/ml, 6×/day) and “prevented progression of disease severity” with Human Adenovirus Type 5 [3] (topical eye drops 50 μg/ml, 6×/day or 9×/day). In addition, the “efficacy against Adenovirus types in culture” value in assay [4] is “effective against types 1, 2, 3, 4, 5, and 7; also recorded: efficacy against Adenovirus types 1, 2, 3, 4, 5, and 7”.
